According to ChEMBL document CHEMBL1201862, “PubChem BioAssay data set” (2004):
Active and inactive are the calls of the source.

Columns and labels:
[1] = test system: INS1; assay: beta cell apoptosis inhibitors, cytokine rescue, dose response, luminescence, retest (AID 449756); format: functional, cell-based; conditions: Rattus norvegicus;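 also: cell death triggered by IL-1 beta plus TNF-alpha plus IFN-gamma mixture; protective hits raise ATP signal compared with cytokine alone wells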
[2] = biological target: Protein Wnt-3a (Mus musculus, UniProt P27467); assay: Wnt3a-driven reporter signaling inhibition, dose response, selectivity assay for Gli-SUFU antagonist project, Wnt-LIGHT cells, luminescence (AID 651570); format: functional; conditions: read-out: IC50_Mean;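 also: Wnt-LIGHT reporter cells stimulated with conditioned medium from Wnt3a-producing cells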
Sequence of Protein Wnt-3a (P27467 whole entry): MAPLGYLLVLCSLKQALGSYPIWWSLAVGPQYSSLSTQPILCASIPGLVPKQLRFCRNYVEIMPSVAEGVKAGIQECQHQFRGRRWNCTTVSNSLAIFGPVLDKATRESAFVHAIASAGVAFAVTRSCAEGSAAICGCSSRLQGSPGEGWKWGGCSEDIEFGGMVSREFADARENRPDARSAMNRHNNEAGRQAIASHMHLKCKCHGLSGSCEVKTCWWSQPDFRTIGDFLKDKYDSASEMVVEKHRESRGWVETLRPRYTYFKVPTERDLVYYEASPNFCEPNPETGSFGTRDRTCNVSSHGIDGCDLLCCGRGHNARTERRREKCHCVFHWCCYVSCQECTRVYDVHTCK

[3] = HEp-2 cell cytotoxicity, dose response, cytotoxicity control for RSV inhibitor project, HTS (AID 2410); format: functional; conditions: human respiratory syncytial virus
[4] = cytotoxicity in COV434 cells, dose response, cytotoxicity control for PAX8 inhibitor project, cell-based, plate reader, dry powder, SA7 (AID 743145); format: functional
[5] = biological target: T1, Microphthalmia-associated transcription factor (Homo sapiens, UniProt O75030); assay: TRPM1 promoter luciferase signal decrease, dose response, MITF inhibitor project, cell-based, SK-MEL-5, cherry-picked, set 3 (AID 493073); format: functional
T1 sequence (O75030 whole entry): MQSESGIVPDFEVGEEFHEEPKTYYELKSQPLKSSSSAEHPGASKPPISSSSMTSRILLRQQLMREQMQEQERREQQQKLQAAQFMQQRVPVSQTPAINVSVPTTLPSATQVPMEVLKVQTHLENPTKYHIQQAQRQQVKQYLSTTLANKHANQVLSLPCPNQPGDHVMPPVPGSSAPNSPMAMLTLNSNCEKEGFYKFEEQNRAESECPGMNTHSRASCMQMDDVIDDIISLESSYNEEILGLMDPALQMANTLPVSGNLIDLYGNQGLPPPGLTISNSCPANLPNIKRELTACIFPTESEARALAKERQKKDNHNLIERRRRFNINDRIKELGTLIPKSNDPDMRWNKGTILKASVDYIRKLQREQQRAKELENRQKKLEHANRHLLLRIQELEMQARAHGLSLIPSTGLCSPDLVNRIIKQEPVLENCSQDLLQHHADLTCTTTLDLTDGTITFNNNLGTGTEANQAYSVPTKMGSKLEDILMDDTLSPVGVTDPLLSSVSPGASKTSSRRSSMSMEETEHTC

[6] = cytotoxicity dependent on PAX8, dose response, cell-based, plate reader, dry powder (AID 743049); format: functional
[7] = cytotoxicity in OV-90 ovarian cancer cells, dose response, PAX8 inhibitor project, cell-based, plate reader, dry powder, SA8 (AID 743149); format: functional
[8] = test system: Vero; assay: host cell cytotoxicity of antiviral hits, dose response, cytotoxicity control for West Nile virus antiviral project, secondary assay (AID 1650); format: functional; conditions: Chlorocebus sabaeus
[9] = PAX2 cell-based inhibition, dose response, selectivity assay for PAX8 inhibitor project, plate reader, dry powder samples (AID 743048); format: functional;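 also: HEK293 cells carrying a WT1 promoter luciferase reporter driven by expressed Pax2; potency is for inhibition of Pax2 driven reporter signal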
[10] = biological target: Interleukin-8 (Homo sapiens, UniProt P10145); assay: Dose Response confirmation of uHTS small molecule hits for cystic fibrosis induced NFkb Inhibitors in a PAF-induced IL8 counterscreen.; format: functional; conditions: read-out: IC50_Mean
Sequence of Interleukin-8 (P10145 whole entry): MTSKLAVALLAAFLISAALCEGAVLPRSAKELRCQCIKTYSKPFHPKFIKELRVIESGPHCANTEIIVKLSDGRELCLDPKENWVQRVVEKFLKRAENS

[11] = PAX5 activity inhibitors, dose response, selectivity assay for PAX8 inhibitor project, cell-based, plate reader, dry powder samples (AID 743047); format: functional;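 also: HEK293 cells carrying a Pax5 driven CD19 promoter luciferase reporter; potency of inhibitors that lower reporter luminescence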
[12] = IGROV1 ovarian cancer cell cytotoxicity, dose response, PAX8 inhibitor project, plate reader, dry powder samples (AID 743043); format: functional, cell-based; conditions: IGROV-1
[13] = biological target: Paired box protein Pax-8 (Homo sapiens, UniProt Q06710); assay: inhibitors of PAX8-driven TPO luciferase reporter, dose response, RMG-I cells, cherry-pick (AID 687027); format: functional, cell-based;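 also: luciferase reporter driven by Pax8 target thyroperoxidase promoter measured by SteadyGlo luminescence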
Sequence of Paired box protein Pax-8 (Q06710 whole entry): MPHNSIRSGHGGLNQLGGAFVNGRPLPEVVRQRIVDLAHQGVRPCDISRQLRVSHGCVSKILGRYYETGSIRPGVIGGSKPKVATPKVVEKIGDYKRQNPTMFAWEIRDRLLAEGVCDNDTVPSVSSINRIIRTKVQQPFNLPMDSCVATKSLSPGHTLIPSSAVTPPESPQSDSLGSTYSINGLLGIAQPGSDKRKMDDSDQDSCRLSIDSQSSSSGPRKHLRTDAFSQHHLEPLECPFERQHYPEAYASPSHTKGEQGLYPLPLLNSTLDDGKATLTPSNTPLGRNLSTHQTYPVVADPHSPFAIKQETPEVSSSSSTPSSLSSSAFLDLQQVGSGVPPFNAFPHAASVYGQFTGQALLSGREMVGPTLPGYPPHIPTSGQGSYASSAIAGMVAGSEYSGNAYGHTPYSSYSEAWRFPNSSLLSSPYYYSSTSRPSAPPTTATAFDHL

[14] = cytotoxicity in OVCAR4 cells, dose response, cytotoxicity control for PAX8 inhibitor project, cell-based, plate reader, dry powder, SA11 (AID 743150); format: functional; conditions: OVCAR-4
[15] = ARNT/TACC3 interaction disruptors, potency, confirmation, biochemical, AlphaScreen, cherry-picked samples (AID 651703); format: functional, Homo sapiens;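 also: His-tagged ARNT PAS-B domain paired with GST-TACC3 E629A dimer coactivator fragment; potency of inhibitors that break up the complex and lower AlphaScreen signal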

Cc1ccc(Cl)cc1N1CCN(C(=O)CSc2nnc3n2C(C)(C)Cc2ccccc2-3)CC1
active: AC50 [1] 5.01 µM | IC50 [2] 4.43 µM | CC50 [3] < 0.1 µM

Cc1ccc(S(=O)(=O)CC(CN2CCCCC2)N2CCCCC2)cc1 (stereo not given)
active: AC50 [4] 9.72 µM | AC50 [5] 8.1 µM | AC50 [6] 17.1 µM | AC50 [7] 15.7 µM | CC50 [8] 8.81 µM | IC50 [10] 4.55 µM | AC50 [11] 22.9 µM | AC50 [12] 46.5 µM | AC50 [13] 4.72 µM | AC50 [14] 80.7 µM
inactive: AC50 [9] > 100 µM

Cn1ccnc1-c1nc2ccccc2nc1O
active: AC50 [15] 71.9 µM
